Laboratory results taken from patent US20240209445A1, “A CONTINUOUS METRIC TO MEASURE ENDOTYPE AND CORTICOSTEROID INTERACTION IN SEPTIC SHOCK” (CHILDREN'S HOSPITAL MEDICAL CENTER, priority 2021, published 2024).

Assay: Validation in adult cohort of the VANISH trial randomized to hydrocortisone or placebo (n=97)
Type: in vivo, human
Settings: adult VANISH subset; controlled for illness severity using the APACHE score; lower Z values
Experimental: The model was also tested using a publicly available transcriptomic data set from the Vasopressin vs. Norepinephrine as Initial Therapy for Septic Shock (VANISH) trial (9, 23). The VANISH trial compared the efficacy of vasopressin to norepinephrine as initial vasopressor therapy for septic shock among adults. Patients who reached a prespecified dose of either vasopressor were further randomized to receive hydrocortisone or placebo. Details of the procedures for assigning the cohort randomized to hydrocortisone or placebo to pediatric endotypes A or B were previously described (10, 15).
The findings above were further validated using a subset of adult subjects from the VANISH trial who were randomized to placebo or hydrocortisone, and for whom there existed publicly available transcriptomic data (n=97). […] The model supports that separation between groups treated with hydrocortisone and those treated with placebo occurs as the Z value decreases.

C[C@]12CCC(=O)C=C1CC[C@@H]1[C@@H]2[C@@H](O)C[C@@]2(C)[C@H]1CC[C@]2(O)C(=O)CO [hydrocortisone]
Odds of death at 28 days by hydrocortisone exposure and Z value: no hydrocortisone exposure and lower Z values tended to have lower odds of death at 28 days
